Consider eight compounds from publication PMC9151520 (Archives of Toxicology, 2022).

The test system of assay [1] is p53 signaling (p53RE-bla HCT-116 cells). Kind of assay: cells. Type of assay: cell-based.
Assay [2] shares this test system.
The test system is the same in assay [3]. This is another data set of the same source.
Setting [4] is: Homo sapiens, HCT-116, read-out: p53 activation EC50, cherry pick confirmation.
Setting [5] is: Homo sapiens, HCT-116, read-out: p53 activation EC50, primary screening.
Where [6] appears, read: Homo sapiens, HCT-116, read-out: p53 activation efficacy, cherry pick confirmation.
Setting [7] is: Homo sapiens, HCT-116, read-out: p53 activation efficacy, primary screening.

Values joined by “and” are separate entries in the source; they are usually repeats but may differ in a detail not shown here. Equal values may be shown once. Read-outs that look alike come from different tables or passages of the source.

The EC50 is the midpoint of the concentration-response curve. Turning to `COc1c(C)c2c(c(O)c1C/C=C(\C)CCC(=O)O)C(=O)OC2` [Mycophenolic acid], the 50% effective concentration (EC50) in assay [1] (setting [4]) came out at 0.172 µM. Moreover, the 50% effective concentration (EC50) in assay [1] (setting [5]) stood at 0.174 µM. Moreover, the Emax in assay [1] (setting [6]) amounted to 58.4%. For the same compound, the Emax in assay [1] (setting [7]) turned out to be 42.7%. For the same compound, in assay [2], the “p53 activation EC50, cherry pick confirmation” value was “inactive”; the “p53 activation EC50, primary screening” value is “inactive”; the “p53 activation efficacy, cherry pick confirmation” value is “inactive”; the “p53 activation efficacy, primary screening” value is “inactive”. In assay [3], the “p53 activation EC50, cherry pick confirmation” value was “inactive”; the “p53 activation EC50, primary screening” value was “inactive”; the “p53 activation efficacy, cherry pick confirmation” value was “inactive”; the “p53 activation efficacy, primary screening” value was “inactive”. Moreover, in the assay on p53RE-bla HCT-116 cells, the “Viability EC50, cherry pick confirmation” value was “inactive”; the “Viability EC50, primary screening” value was “inactive”; the “Viability efficacy, cherry pick confirmation” value was “inactive”; the “Viability efficacy, primary screening” value was “inactive”.
With `O=C(N/N=C/c1ccc([N+](=O)[O-])o1)c1ccc(O)cc1` [Nifuroxazide], the concentration for a half-maximal effect (EC50) in assay [1] (setting [4]) came out at 10.2 µM. Moreover, the EC50 in assay [1] (setting [5]) is 19.6 µM. Also, the Emax in assay [1] (setting [6]) was found to be 47.4%. Also, the Emax in assay [1] (setting [7]) came to 39.6%. In assay [2], the “p53 activation EC50, cherry pick confirmation” value is “inactive”; the “p53 activation EC50, primary screening” value is “inactive”; the “p53 activation efficacy, cherry pick confirmation” value is “inactive”; the “p53 activation efficacy, primary screening” value is “inactive”. Also, in assay [3], the “p53 activation EC50, cherry pick confirmation” value was “inactive”; the “p53 activation EC50, primary screening” value is “inactive”; the “p53 activation efficacy, cherry pick confirmation” value is “inactive”; the “p53 activation efficacy, primary screening” value is “inactive”. Moreover, in the assay with p53RE-bla HCT-116 cells, the “Viability EC50, cherry pick confirmation” value was “inactive”; the “Viability EC50, primary screening” value was “inactive”; the “Viability efficacy, cherry pick confirmation” value was “inactive”; the “Viability efficacy, primary screening” value is “inactive”.
Take `O=C1c2ccccc2C(=O)C1(O)O` [Ninhydrin]: the concentration giving a half-maximal response (EC50) in assay [1] (setting [4]) was 22.3 µM. For the same compound, in assay [1] (setting [5]), the 50% effective concentration (EC50) stood at 41.2 µM. Moreover, the Emax in assay [1] (setting [6]) was 44.3%. For the same compound, in assay [1] (setting [7]), the Emax came out at 55.1%. Also, in assay [2], the “p53 activation EC50, cherry pick confirmation” value is “inactive”; the “p53 activation EC50, primary screening” value was “inactive”; the “p53 activation efficacy, cherry pick confirmation” value is “inactive”; the “p53 activation efficacy, primary screening” value is “inactive”. Further, in assay [3], the “p53 activation EC50, cherry pick confirmation” value is “inactive”; the “p53 activation EC50, primary screening” value was “inactive”; the “p53 activation efficacy, cherry pick confirmation” value was “inactive”; the “p53 activation efficacy, primary screening” value is “inactive”. In the assay with p53RE-bla HCT-116 cells, the “Viability EC50, cherry pick confirmation” value is “inactive”; the “Viability EC50, primary screening” value is “inactive”; the “Viability efficacy, cherry pick confirmation” value is “inactive”; the “Viability efficacy, primary screening” value is “inactive”.
As for `CC1=C(C(=O)Nc2ccccc2)S(=O)(=O)CCO1` [Oxycarboxin], in assay [1] (setting [4]), the EC50 worked out at 36.4 µM. Further, in assay [1] (setting [5]), the EC50 amounted to 21.2 µM. Also, in assay [1] (setting [6]), the Emax was determined as 82.6%. Moreover, in assay [1] (setting [7]), the Emax was 76%. In assay [2], the “p53 activation EC50, cherry pick confirmation” value is “inactive”; the “p53 activation EC50, primary screening” value was “inactive”; the “p53 activation efficacy, cherry pick confirmation” value is “inactive”; the “p53 activation efficacy, primary screening” value was “inactive”. In addition, in assay [3], the “p53 activation EC50, cherry pick confirmation” value was “inactive”; the “p53 activation EC50, primary screening” value is “inactive”; the “p53 activation efficacy, cherry pick confirmation” value is “inactive”; the “p53 activation efficacy, primary screening” value is “inactive”. For the same compound, in the assay with p53RE-bla HCT-116 cells, the “Viability EC50, cherry pick confirmation” value was “inactive”; the “Viability EC50, primary screening” value was “inactive”; the “Viability efficacy, cherry pick confirmation” value is “inactive”; the “Viability efficacy, primary screening” value is “inactive”.
Turning to `O=C(O)c1c(O)c(-c2ccccc2)nc2ccccc12` [Oxycinchophen], the concentration for a half-maximal effect (EC50) in assay [1] (setting [4]) was found to be 23.1 µM. In assay [1] (setting [5]), the EC50 worked out at 16.6 µM. For the same compound, the Emax in assay [1] (setting [6]) came out at 87.1%. Moreover, the Emax in assay [1] (setting [7]) was found to be 60.5%. Besides, in assay [2], the “p53 activation EC50, cherry pick confirmation” value is “inactive”; the “p53 activation EC50, primary screening” value was “inactive”; the “p53 activation efficacy, cherry pick confirmation” value is “inactive”; the “p53 activation efficacy, primary screening” value was “inactive”. In assay [3], the “p53 activation EC50, cherry pick confirmation” value was “inactive”; the “p53 activation EC50, primary screening” value is “inactive”; the “p53 activation efficacy, cherry pick confirmation” value is “inactive”; the “p53 activation efficacy, primary screening” value was “inactive”. Moreover, in the assay with p53RE-bla HCT-116 cells, the “Viability EC50, cherry pick confirmation” value was “inactive”; the “Viability EC50, primary screening” value was “inactive”; the “Viability efficacy, cherry pick confirmation” value was “inactive”; the “Viability efficacy, primary screening” value was “inactive”.
Consider `CCOP(=O)(OCC)Oc1ccc([N+](=O)[O-])cc1` [Paraoxon], for which, in assay [1], the “p53 activation EC50, cherry pick confirmation” value was “inactive”; the “p53 activation EC50, primary screening” value is “inactive”; the “p53 activation efficacy, cherry pick confirmation” value is “inactive”; the “p53 activation efficacy, primary screening” value is “inactive”. In addition, in assay [2], the “p53 activation EC50, cherry pick confirmation” value was “inactive” and the “p53 activation efficacy, cherry pick confirmation” value is “inactive”. In assay [3], the “p53 activation EC50, cherry pick confirmation” value was “inactive” and the “p53 activation efficacy, cherry pick confirmation” value was “inactive”. Also, in the assay with p53RE-bla HCT-116 cells, the “Viability EC50, cherry pick confirmation” value was “inactive”; the “Viability EC50, primary screening” value is “inactive”; the “Viability efficacy, cherry pick confirmation” value was “inactive”; the “Viability efficacy, primary screening” value is “inactive”.
For `CN1C(=O)N(c2ccccc2Br)Cc2cnc(Nc3ccc4c(c3)OCC(CO)O4)nc21` (stereo not shown) [PharmaGSID_48519], in assay [1], the “p53 activation efficacy, cherry pick confirmation” value amounted to 31.694 and the “p53 activation efficacy, primary screening” value was determined as 31.571. In assay [1] (read-out: p53 activation EC50, cherry pick confirmation), the concentration for a half-maximal effect (EC50) worked out at 13.6 µM. Also, the EC50 in assay [1] (read-out: p53 activation EC50, primary screening) is 9.59 µM. Also, in assay [2], the “p53 activation EC50, cherry pick confirmation” value was “inactive”; the “p53 activation EC50, primary screening” value was “inactive”; the “p53 activation efficacy, cherry pick confirmation” value was “inactive”; the “p53 activation efficacy, primary screening” value was “inactive”. In assay [3], the “p53 activation EC50, cherry pick confirmation” value was “inactive”; the “p53 activation EC50, primary screening” value was “inactive”; the “p53 activation efficacy, cherry pick confirmation” value is “inactive”; the “p53 activation efficacy, primary screening” value was “inactive”. Besides, in the assay with p53RE-bla HCT-116 cells, the “Viability EC50, cherry pick confirmation” value was “inactive”; the “Viability EC50, primary screening” value was “inactive”; the “Viability efficacy, cherry pick confirmation” value was “inactive”; the “Viability efficacy, primary screening” value is “inactive”.
In the case of `CCN(CC)C(=O)C(Cl)=C(C)OP(=O)(OC)OC` [Phosphamidon], in assay [1], the “p53 activation EC50, No MS” value is “inactive” and the “p53 activation Efficacy, No MS” value was “inactive”. For the same compound, in assay [2], a half-maximal response (EC50) required 3.22 µM. Besides, the EC50 in assay [2] (read-out: p53 activation EC50, RLM) was 2.35 µM and 3.43 µM. In addition, the “p53 activation EC50, HLM” value in assay [3] is “inactive”. Besides, in assay [3] (read-out: p53 activation EC50, HLM), the EC50 was determined as 5.82 µM. Besides, in the assay with p53RE-bla HCT-116 cells, the “Viability EC50, HLM” value was “inactive”; the “Viability EC50, No MS” value was “inactive”; the “Viability EC50, RLM” value is “inactive”; the “Viability Efficacy, No MS” value was “inactive”.
